Data reported in ChEMBL document CHEMBL1156898, “Synthesis, photophysical properties and photocytotoxicity of mono-, di-, tri- and tetra-glucosylated fluorophenylporphyrins” (Bioorg Med Chem, 2010).
Calls of active or inactive are those of the source. The calls are words filed in the database; no cut-off is given here.

Assays:
[1] = test system: HeLa; test: Cytotoxicity against human HeLa cells assessed as cell survival in dark at 100 nM after 24 hrs by WST8 assay; format: functional, cell-based
[2] = test system: HeLa; test: Phototoxicity against human HeLa cells irradiated with 16Jcm'-2 from halogen lamp assessed as cell survival at 100 nM after 24 hrs by WST8 assay; format: functional, cell-based; settings: light or radiation study
[3] = Lipophilicity, log P of the compound; format: physicochemical; settings: octanol/water
[4] = test system: HeLa; test: Drug uptake in human HeLa cells at 80 nM after 24 hrs relative to TPPS; format: ADME, cell-based; settings: 0.08 µM
[5] = test system: HeLa; test: Phototoxicity in human HeLa cells assessed as induction of apoptotic bodies at 500 nM after 3 hrs using DAPI staining by confocal laser scanning microscopy; format: functional, cell-based
[6] = test system: HeLa; test: Phototoxicity in human HeLa cells assessed as induction of cell shrinkage at 500 nM after 3 hrs using DAPI staining by confocal laser scanning microscopy; format: functional, cell-based

Row | SMILES | Activity [1] | % survival [2] [%] | logP [3] | Activity [4] | Activity [5] | Activity [6]
1 | OC[C@H]1O[C@@H](Sc2c(F)c(F)c(-c3c4nc(c(-c5c(F)c(F)c(S[C@@H]6O[C@H](CO)[C@@H](O)[C@H](O)[C@H]6O)c(F)c5F)c5ccc([nH]5)c(-c5c(F)c(F)c(S[C@@H]6O[C@H](CO)[C@@H](O)[C@H](O)[C@H]6O)c(F)c5F)c5nc(c(-c6c(F)c(F)c(F)c(F)c6F)c6ccc3[nH]6)C=C5)C=C4)c(F)c2F)[C@H](O)[C@@H](O)[C@@H]1O | Not toxic | 80 | 2.99 | Active |  | 
2 | OC[C@H]1O[C@@H](Sc2c(F)c(F)c(-c3c4nc(c(-c5c(F)c(F)c(F)c(F)c5F)c5ccc([nH]5)c(-c5c(F)c(F)c(F)c(F)c5F)c5nc(c(-c6c(F)c(F)c(F)c(F)c6F)c6ccc3[nH]6)C=C5)C=C4)c(F)c2F)[C@H](O)[C@@H](O)[C@@H]1O | Not toxic | 90 | 5.11 | Active |  | 
3 | OC[C@H]1O[C@@H](Sc2c(F)c(F)c(-c3c4nc(c(-c5c(F)c(F)c(S[C@@H]6O[C@H](CO)[C@@H](O)[C@H](O)[C@H]6O)c(F)c5F)c5ccc([nH]5)c(-c5c(F)c(F)c(F)c(F)c5F)c5nc(c(-c6c(F)c(F)c(F)c(F)c6F)c6ccc3[nH]6)C=C5)C=C4)c(F)c2F)[C@H](O)[C@@H](O)[C@@H]1O | Not toxic | 90 | 3.98 | Active |  | 
4 | OC[C@H]1O[C@@H](Sc2c(F)c(F)c(-c3c4nc(c(-c5c(F)c(F)c(F)c(F)c5F)c5ccc([nH]5)c(-c5c(F)c(F)c(S[C@@H]6O[C@H](CO)[C@@H](O)[C@H](O)[C@H]6O)c(F)c5F)c5nc(c(-c6c(F)c(F)c(F)c(F)c6F)c6ccc3[nH]6)C=C5)C=C4)c(F)c2F)[C@H](O)[C@@H](O)[C@@H]1O | Not toxic | < 5 | 3.53 | Active | Active | Active
5 | OC[C@H]1O[C@@H](Sc2c(F)c(F)c(-c3c4nc(c(-c5c(F)c(F)c(S[C@@H]6O[C@H](CO)[C@@H](O)[C@H](O)[C@H]6O)c(F)c5F)c5ccc([nH]5)c(-c5c(F)c(F)c(S[C@@H]6O[C@H](CO)[C@@H](O)[C@H](O)[C@H]6O)c(F)c5F)c5nc(c(-c6c(F)c(F)c(S[C@@H]7O[C@H](CO)[C@@H](O)[C@H](O)[C@H]7O)c(F)c6F)c6ccc3[nH]6)C=C5)C=C4)c(F)c2F)[C@H](O)[C@@H](O)[C@@H]1O | Not toxic | 90 | 0.75 | Active |  | 
